In patent US11560582B2, “Fusion moieties and microbial hosts for protein production” (priority 2018, dated 2023):

Columns and labels:
[1] = test system: A. wodanis strains; conditions: have been reported; cited from earlier work
[2] = test system: A. wodanis strain 06/09/178 (29); test: Antibiotic susceptibility testing on LB plates; format: cell-based, Aliivibrio wodanis; conditions: 12° C. for 2 days
Experimental: (§1) Antibiotic susceptibility testing was done by streaking A. wodanis cells onto LB plates supplemented with 2.5% NaCl and one of the following antibiotics: Chloramphenicol (2 μg/mL, Tetracycline (10 μg/mL), Carbenicillin (100 or 200 μg/mL) or Kanamycin (50 or 100 μg/mL). A. wodanis was regarded as susceptible (score=0) if no growth was detected, as intermediate susceptible (score=0.5) if poor growth was detected, or as resistant (score=1) if good growth was detected. The tested concentrations of antibiotics were similar to the recommended working concentrations for E. coli, except Chloramphenicol that was tested at 2 μg/mL (instead of 25 μg/mL). If the test scored as “resistant”, then the test was redone using 2× of the recommended concentration. All A. wodanis strains were streaked onto same agar plate and grown at 12° C. for 2 days.

[3] = test system: A. wodanis strain 90/09/325 (5); test: Antibiotic susceptibility testing on LB plates; format: cell-based, Aliivibrio wodanis; conditions: 12° C. for 2 days
Experimental: as §1

[4] = test system: A. wodanis strain 04/60/17347 (35); test: Antibiotic susceptibility testing on LB plates; format: cell-based, Aliivibrio wodanis; conditions: 12° C. for 2 days
Experimental: as §1

[5] = test system: A. wodanis strain 06/09/170 (27); test: Antibiotic susceptibility testing on LB plates; format: cell-based, Aliivibrio wodanis; conditions: 12° C. for 2 days
Experimental: as §1

[6] = test system: A. wodanis strain 01/09/401 (11); test: Antibiotic susceptibility testing on LB plates; format: cell-based, Aliivibrio wodanis; conditions: 12° C. for 2 days
Experimental: as §1

[7] = test system: A. wodanis strain 02/09/569 (7); test: Antibiotic susceptibility testing on LB plates; format: cell-based, Aliivibrio wodanis; conditions: 12° C. for 2 days
Experimental: as §1

[8] = test system: A. wodanis strain 03/09/160 (37); test: Antibiotic susceptibility testing on LB plates; format: cell-based, Aliivibrio wodanis; conditions: 12° C. for 2 days
Experimental: as §1

[9] = test system: A. wodanis strain 88/09/441 (12) (T); test: Antibiotic susceptibility testing on LB plates; format: cell-based, Aliivibrio wodanis; conditions: 12° C. for 2 days
Experimental: as §1

[10] = test system: A. wodanis strain 02/09/382 (8); test: Antibiotic susceptibility testing on LB plates; format: cell-based, Aliivibrio wodanis; conditions: 12° C. for 2 days
Experimental: as §1

[11] = test system: A. wodanis strain 89/09/5532 (1); test: Antibiotic susceptibility testing on LB plates; format: cell-based, Aliivibrio wodanis; conditions: 12° C. for 2 days
Experimental: as §1

[12] = test system: A. wodanis strains; test: Antibiotic resistance test, summary for all strains; format: cell-based, Aliivibrio wodanis; conditions: the twelve strains used in this study
Experimental: Next, we tested for resistance to antibiotics, four of which are commonly used in biotechnological applications, namely carbenicillin, kanamycin, tetracycline and chloramphenicol.
as §1

[13] = test system: A. wodanis strain K7F1 150913; format: cell-based, Aliivibrio wodanis; conditions: 12° C. for 2 days
Experimental: as §1

Question: Which “Resistance of A. wodanis strains (reported)” value [1] does the source give for `CO[C@@]1(NC(=O)Cc2cccs2)C(=O)N2C(C(=O)O)=C(COC(N)=O)CS[C@@H]21` [cefoxitin] here?
Answer: Its value is “Resistance”.

Question: For `CC1(C)S[C@@H]2[C@H](NC(=O)C(C(=O)O)c3ccccc3)C(=O)N2[C@H]1C(=O)O` (stereo partly drawn) [CAR, Carbenicillin], which “Antibiotics resistance CAR 100 μg/mL” value ([2]; 100 μg/mL) is on record?
Answer: Its value is 1.

Question: What about the “Antibiotics resistance CAR 200 μg/mL” value ([2]; 200 μg/mL) of the same compound?
Answer: The value was 1.

Question: What about the “Antibiotics resistance CAR 100 μg/mL” value ([3]; 100 μg/mL) of the same compound?
Answer: Its value is 1.

Question: And the “Antibiotics resistance CAR 200 μg/mL” value ([3]; 200 μg/mL)?
Answer: Its value is 1.

Question: What about the “Antibiotics resistance CAR 100 μg/mL” value ([4]; 100 μg/mL) of the same compound?
Answer: Its value is 1.

Question: And the “Antibiotics resistance CAR 200 μg/mL” value ([4]; 200 μg/mL)?
Answer: The value was 1.

Question: What about the “Antibiotics resistance CAR 100 μg/mL” value ([5]; 100 μg/mL) of the same compound?
Answer: Its value is 1.

Question: What about the “Antibiotics resistance CAR 200 μg/mL” value ([5]; 200 μg/mL) of the same compound?
Answer: Its value is 1.

Question: What about the “Antibiotics resistance CAR 100 μg/mL” value ([6]; 100 μg/mL) of the same compound?
Answer: Its value is 1.

Question: And the “Antibiotics resistance CAR 200 μg/mL” value ([6]; 200 μg/mL)?
Answer: Its value is 1.

Question: What about the “Antibiotics resistance CAR 100 μg/mL” value ([7]; 100 μg/mL) of the same compound?
Answer: Its value is 1.

Question: And the “Antibiotics resistance CAR 200 μg/mL” value ([7]; 200 μg/mL)?
Answer: The value was 1.

Question: And the “Antibiotics resistance CAR 100 μg/mL” value ([8]; 100 μg/mL)?
Answer: Its value is 1.

Question: And the “Antibiotics resistance CAR 200 μg/mL” value ([8]; 200 μg/mL)?
Answer: Its value is 1.

Question: And the “Antibiotics resistance CAR 100 μg/mL” value ([9]; 100 μg/mL)?
Answer: Its value is 0.5.

Question: What about the “Antibiotics resistance CAR 200 μg/mL” value ([9]; 200 μg/mL) of the same compound?
Answer: The value was 0.5.

Question: What about the “Antibiotics resistance CAR 100 μg/mL” value ([10]; 100 μg/mL) of the same compound?
Answer: Its value is 1.

Question: And the “Antibiotics resistance CAR 200 μg/mL” value ([10]; 200 μg/mL)?
Answer: Its value is 1.

Question: And the “Antibiotics resistance CAR 100 μg/mL” value ([11]; 100 μg/mL)?
Answer: The value was 1.

Question: What about the “Antibiotics resistance CAR 200 μg/mL” value ([11]; 200 μg/mL) of the same compound?
Answer: The value was 1.

Question: What about the “sensitivity / resistance to antibiotics” value [12] of the same compound?
Answer: Its value is “resistance”.

Question: And the “Antibiotics resistance CAR 100 μg/mL” value ([13]; 100 μg/mL)?
Answer: Its value is 1.

Question: What about the “Antibiotics resistance CAR 200 μg/mL” value ([13]; 200 μg/mL) of the same compound?
Answer: Its value is 1.

Question: With `CC1(C)S[C@@H]2[C@H](NC(=O)[C@H](N)c3ccccc3)C(=O)N2[C@H]1C(=O)O` [ampicillin] as the compound, how does the “Resistance of A. wodanis strains (reported)” value [1] read?
Answer: Its value is “Resistance”.

Question: Which “Antibiotics resistance TET 10 μg/mL” value ([2]; 10 μg/mL) does the source give for `CN(C)[C@@H]1C(O)=C(C(N)=O)C(=O)[C@@]2(O)C(O)=C3C(=O)c4c(O)cccc4[C@@](C)(O)[C@H]3C[C@@H]12` [TET, Tetracycline] here?
Answer: Its value is 0.

Question: What about the “Antibiotics resistance TET 10 μg/mL” value ([3]; 10 μg/mL) of the same compound?
Answer: The value was 0.

Question: And the “Antibiotics resistance TET 10 μg/mL” value ([4]; 10 μg/mL)?
Answer: The value was 0.

Question: What about the “Antibiotics resistance TET 10 μg/mL” value ([5]; 10 μg/mL) of the same compound?
Answer: The value was 0.

Question: What about the “Antibiotics resistance TET 10 μg/mL” value ([6]; 10 μg/mL) of the same compound?
Answer: The value was 0.

Question: And the “Antibiotics resistance TET 10 μg/mL” value ([7]; 10 μg/mL)?
Answer: Its value is 0.

Question: And the “Antibiotics resistance TET 10 μg/mL” value ([8]; 10 μg/mL)?
Answer: Its value is 0.

Question: And the “Antibiotics resistance TET 10 μg/mL” value ([9]; 10 μg/mL)?
Answer: The value was 0.

Question: What about the “Antibiotics resistance TET 10 μg/mL” value ([10]; 10 μg/mL) of the same compound?
Answer: Its value is 0.

Question: And the “Antibiotics resistance TET 10 μg/mL” value ([11]; 10 μg/mL)?
Answer: The value was 0.

Question: And the “Antibiotics resistance TET 10 μg/mL” value ([13]; 10 μg/mL)?
Answer: Its value is 0.
